In article PMC9597602, “Metal Complexes as Antifungals? From a Crowd-Sourced Compound Library to the First In Vivo Experiments” (JACS Au, 2022):
Read-outs that look alike come from different tables or passages of the source.

How the values were obtained:
[1] = system: HEK-293 human embryonic kidney cells ATCC CRL-1573
Protocol: The cells were incubated together with the compounds for 20 h at 37 °C in 5% CO2. […] Tamoxifen (Sigma T5648) was used as internal control on each plate.

[2] = system: Candida albicans ATCC 90028 NCCLS11; assay: Antifungal MIC assay; format: cell-based; settings: for MIC Ca: initial CO-ADD dose-response screening, ≥80% growth inhibition; for MIC50 Candida albicans ATCC 90028: 50% inhibition, MIC score 2
How it was run: (§1)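 MIC is the lowest concentration at which growth fell by at least 80% (optically clear to slightly hazy, CLSI M27 score 0–1). Cells in YNB at a final 2.5 × 10^3 CFU/mL were incubated with compound for 36 h at 35 °C, unshaken.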

[3] = system: Candida tropicalis ATCC 750; assay: Antifungal MIC assay, extended panel; format: cell-based; settings: extended panel, second batch; ≥80 or ≥50% inhibition
How it was run: as §1

[4] = system: Cryptococcus deuterogattii CBS7750 VGII; Serotype B; assay: Antifungal MIC assay, extended panel; format: cell-based; settings: extended panel, second batch; ≥80 or ≥50% inhibition
How it was run: as §1

[5] = system: Candida glabrata ATCC 90030 NCCLS 84; assay: Antifungal MIC assay, extended panel; format: cell-based; settings: extended panel, second batch; ≥80 or ≥50% inhibition
How it was run: as §1

[6] = system: Cryptococcus deuterogattii ATCC 32609 VGII; assay: Antifungal MIC assay, extended panel; format: cell-based; settings: extended panel, second batch; ≥80 or ≥50% inhibition
human red blood cells = format: cell-based
How it was run: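 Washed human erythrocytes at 0.5 × 10^8 cells/mL incubated with compound, then centrifuged. Haemolysis read as supernatant OD405, normalised to untreated cells (0%) and 1% Triton X-100 (100%), with melittin as internal plate control.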

[7] = system: Candida auris CBS10913 JCM 15448; assay: Antifungal MIC assay, extended panel; format: cell-based; settings: extended panel; for MIC Candida auris CBS10913 / MIC: second batch, ≥80 or ≥50% inhibition; for MIC50 Candida auris CBS10913: 50% inhibition, MIC score 2; for MIC: read-out: MIC* Candida auris CBS10913
How it was run: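 Yeast strains were grown on YPD agar at 30 °C for 3 days. Five colonies were suspended to 1 × 10^6 to 5 × 10^6 CFU/mL (by OD530), diluted in YNB medium, and dispensed into compound-containing 384-well NBS plates to 2.5 × 10^3 CFU/mL in 50 μL. Covered plates were held at 35 °C for 36 h without shaking, and MIC was determined by broth dilution.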

[8] = system: Candida auris CBS12373 KCTC 17810; assay: Antifungal MIC assay, extended panel; format: cell-based; settings: extended panel; for MIC Candida auris CBS12373 / MIC: second batch, ≥80 or ≥50% inhibition; for MIC50 Candida auris CBS12373: 50% inhibition, MIC score 2; for MIC: read-out: MIC* Candida auris CBS12373
How it was run: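 Yeast was grown for 3 days at 30 °C on YPD agar. Five colonies were suspended to 1 × 10^6 to 5 × 10^6 CFU/mL, checked by OD530, diluted in YNB medium, and dispensed onto compound-loaded 384-well NBS plates at 2.5 × 10^3 CFU/mL in 50 μL. Plates were covered and incubated without shaking at 35 °C for 36 h to determine MIC.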

[9] = system: Pseudomonas aeruginosa ATCC 27853 QC control strain; assay: CO-ADD antibacterial MIC assay; format: cell-based; settings: initial CO-ADD dose-response screening; ≥80% growth inhibition
How it was run: (§2)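 Mid-log cultures in cation-adjusted Mueller Hinton broth at 5 × 10^5 CFU/mL, incubated with compound 18 h at 37 °C without shaking; growth read as OD600. MIC is the lowest concentration giving ≥80% growth inhibition; two technical replicates in two independent assays (n = 4).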

[10] = system: Acinetobacter baumannii ATCC 19606 type strain; assay: CO-ADD antibacterial MIC assay; format: cell-based; settings: initial CO-ADD dose-response screening; ≥80% growth inhibition
How it was run: as §2

[11] = system: Escherichia coli ATCC 25922 FDA control strain; assay: CO-ADD antibacterial MIC assay; format: cell-based; settings: initial CO-ADD dose-response screening; ≥80% growth inhibition
How it was run: as §2

[12] = system: methicillin-resistant Staphylococcus aureus ATCC 43300; assay: CO-ADD antibacterial MIC assay; format: cell-based; settings: initial CO-ADD dose-response screening; ≥80% growth inhibition
How it was run: as §2

[13] = read-out: HEK293 CC50, ranges obtained upon retesting, new batch
[14] = read-out: HEK CC50, initial CO-ADD screening, 20 h
[15] = extended panel, second batch, ≥80 or ≥50% inhibition
[16] = initial CO-ADD screening, 1 h, 10% hemolysis
[17] = ranges obtained upon retesting, new batch

MIC Candida tropicalis ATCC 750 [3]	MIC Cryptococcus deuterogattii CBS7750 [4]	MIC Candida glabrata ATCC 90030 [5]	RBC HC10 (human red blood cells; [17])	MIC Pa [9]	MIC Ab [10]	MIC Ec [11]	MIC MRSA (Sa) [12]	MIC50 Candida albicans ATCC 90028 ([2]; extended panel)	MIC50 Candida auris CBS10913 [7]	Structure (SMILES)	CC50 [1, 13]	CC50 [1, 14]	MIC Candida albicans ATCC 90028 [2, 15]	MIC Ca [2]	MIC Cryptococcus deuterogattii ATCC 32609 [6]	RBC HC10 (human red blood cells; [16])	MIC Candida auris CBS10913 [7]	MIC Candida auris CBS12373 [8]	HEK CC50 ([1]; initial CO-ADD screening, 20 h)	MIC [5]	also measured
12.5 to 25 µM	≤0.78 to 1.56 µM	12.5 to 25 µM	> 100 µM	>20 µM	>20 µM	>20 µM	>20 µM			CC(C)C([O][Pt][Cl])C1=CCCC=CCC1 (centres unmarked) [Pt4]	> 100 µM	> 20 µM	6.25 to 12.5 µM	10 µM	3.12 to 6.25 µM	>20 µM	6.25 to 12.5 µM	1.56 to 3.12 µM			
≤0.006 to 0.049 µM	0.006 to 0.098 µM	0.006 to 0.195 µM	> 200 µM	>32 µg/mL	>32 µg/mL	>32 µg/mL	>32 µg/mL	≤0.006 to 0.098 µM	≤0.006 to 0.049 µM	O=C([O][Ag])c1ccc(N2N=C(/C=C/C=C/c3ccccc3)CC2/C=C/c2ccccc2)cc1.O=C([O][Ag])c1ccc(N2N=C(/C=C/C=C/c3ccccc3)CC2/C=C/c2ccccc2)cc1 (racemic) [Ag2, 1-(4-Carboxyphenyl)-3-{(1E,3E)-4-phenylbuta-1,3-dien-1-yl}-5-{(E)-styryl}-2-pyrazoline silver(I) complex]	6 to 7 µM		≤0.006 to 0.098 µM	≤0.25 µg/mL	0.006 to 0.098 µM	>32 µg/mL	0.006 to 0.098 µM	0.006 to 0.098 µM	>32 µg/mL		MIC50 Candida auris CBS12373 [8]: ≤0.006 to 0.098 µM
≤0.006 to 0.049 µM	0.024 to 0.098 µM	0.024 to 0.098 µM	> 200 µM	>20 µM	>20 µM	>20 µM	>20 µM	≤0.006 to 0.012 µM	≤ 0.006 µM	Cc1ccc2ccc3ccc(C)nc3c2n1.Cc1ccc2ccc3ccc(C)nc3c2n1.O=C([O][Eu]([O]C(=O)c1ccccc1F)[O]C(=O)c1ccccc1F)c1ccccc1F [Eu1]	> 200 µM	> 20 µM	≤0.006 to 0.012 µM			>20 µM					cytotoxicity: none up to stated concentration ([1]; retest): > 200 µM; MIC [6]: 0.024 µM; hemolysis: none up to stated concentration (human red blood cells; retest): > 200 µM; MIC [7]: 0.006 µM; MIC [8]: 0.006 µM; MIC50 Candida auris CBS12373 [8]: ≤ 0.006 µM
≤0.006 to 0.012 µM			13 to 154 µM	>32 µg/mL	>32 µg/mL	>32 µg/mL	>32 µg/mL	≤ 0.006 µM	≤ 0.006 µM	COc1ccc(/C=C/C2=NN(c3ccc(C(=O)[O][Ag])cc3)C(c3ccc(OC)c(OC)c3)C2)cc1OC.COc1ccc(/C=C/C2=NN(c3ccc(C(=O)[O][Ag])cc3)C(c3ccc(OC)c(OC)c3)C2)cc1OC (racemic) [Ag1, (Ε)-1-(4-Carboxyphenyl)-5-(3,4-dimethoxyphenyl)-3-(3,4-dimethoxystyryl)-2-pyrazoline silver(I) complex]	3 to 4 µM			≤0.25 µg/mL	0.006 to 0.024 µM	>32 µg/mL			>32 µg/mL	≤0.006 µM	MIC ([2]; extended panel, second batch, ≥80 or ≥50% inhibition, read-out: MIC* Candida albicans ATCC 90028): ≤0.006 µM; MIC [4]: 0.006 µM; MIC [7]: 0.006 µM; MIC [8]: ≤0.006 µM; MIC50 Candida auris CBS12373 [8]: ≤ 0.006 µM

Continued, molecule first:

Structure (SMILES)	MIC Candida tropicalis ATCC 750 [3]	MIC Cryptococcus deuterogattii CBS7750 [4]	MIC Candida glabrata ATCC 90030 [5]	RBC HC10 (human red blood cells; [17])	MIC Pa [9]	MIC Ab [10]	MIC Ec [11]	MIC MRSA (Sa) [12]	MIC50 Candida albicans ATCC 90028 ([2]; extended panel)	MIC50 Candida auris CBS10913 [7]	CC50 [1, 13]	CC50 [1, 14]	MIC Candida albicans ATCC 90028 [2, 15]	MIC Ca [2]	MIC Cryptococcus deuterogattii ATCC 32609 [6]	RBC HC10 (human red blood cells; [16])	MIC Candida auris CBS10913 [7]	MIC Candida auris CBS12373 [8]	HEK CC50 ([1]; initial CO-ADD screening, 20 h)	MIC [5]	also measured
CC(=NN=C(N)[S-])C(C)=NN=C(N)[S-].O=[N+]([O-])[O-].[Co+3].c1c[nH]cn1.c1c[nH]cn1 [Co1]				> 100 µM	>32 µg/mL	>32 µg/mL	>32 µg/mL	>32 µg/mL			> 100 µM		0.78 to 1.56 µM	0.5 µg/mL	0.78 to 1.56 µM	>32 µg/mL	0.39 to 0.78 µM	0.39 to 0.78 µM	>32 µg/mL	100 µM	MIC [3]: 0.39 µM; MIC [4]: 1.56 µM
C1=CCCC=CCC1.[I][Pt][I] [Pt2]		≤0.78 to 3.13 µM		> 100 µM	>20 µM	>20 µM	>20 µM	0.625 µM			> 100 µM	> 20 µM	12.5 to 25 µM	10 µM	6.25 to 12.5 µM	>20 µM		3.13 to 6.25 µM		50 µM	MIC [3]: 50 µM; MIC [7]: 12.5 µM
C1=CCCC=CCC1.[Cl][Pt][Cl] [Pt1]		1.56 to 3.13 µM		> 100 µM	>20 µM	>20 µM	>20 µM	1.25 µM			> 100 µM	> 20 µM	12.5 to 25 µM	10 µM	3.125 to 6.25 µM	>20 µM	6.25 to 12.5 µM			25 µM	MIC [3]: 25 µM; MIC [8]: 3.13 µM
